Test results as given in the CheMixHub viscosity set.
“And” between values parts separate entries of the source, which are not always exact repeats. Equal values may be shown once.

Test: xn = mol fraction of the nth substance listed

CCC(O)CO (stereo not given) + O=C1CCCN1
101.33 kPa
Conditions	viscosity [mPa·s]
298.15 K, x2 = 0.0555	46.5
298.15 K, x2 = 0.09272	42.92
298.15 K, x2 = 0.2043	34.62
298.15 K, x2 = 0.2943	29.84
298.15 K, x2 = 0.4023	25.54
298.15 K, x2 = 0.508	22.41
298.15 K, x2 = 0.6045	20.25
298.15 K, x2 = 0.6902	18.59
298.15 K, x2 = 0.7968	16.74
298.15 K, x2 = 0.8891	15.2
298.15 K, x2 = 0.9416	14.65
308.15 K, x2 = 0.04722	26.34
308.15 K, x2 = 0.1008	23.83
308.15 K, x2 = 0.2171	19.71
308.15 K, x2 = 0.2992	17.63
308.15 K, x2 = 0.6065	12.84
308.15 K, x2 = 0.6909	11.99
308.15 K, x2 = 0.8019	10.94
308.15 K, x2 = 0.886	10.18
308.15 K, x2 = 0.9402	9.675
318.15 K, x2 = 0.04672	15.75
318.15 K, x2 = 0.07619	15.07
318.15 K, x2 = 0.2048	12.57
318.15 K, x2 = 0.289	11.39
318.15 K, x2 = 0.4043	10.2
318.15 K, x2 = 0.4992	9.411
318.15 K, x2 = 0.6031	8.699
318.15 K, x2 = 0.6923	8.26
318.15 K, x2 = 0.7988	7.666
318.15 K, x2 = 0.8817	7.237
318.15 K, x2 = 0.9477	6.892

COCCOCCOCCO + O=C1CCCN1
298.15 K, 101 kPa
Conditions	viscosity [mPa·s]
x1 = 0.0024	14.16
x1 = 0.0071	13.98
x1 = 0.0099	13.92
x1 = 0.0137	13.86
x1 = 0.026	13.66
x1 = 0.0397	13.43
x1 = 0.0605	13.11
x1 = 0.085	12.74
x1 = 0.1404	12.01
x1 = 0.1689	11.65
x1 = 0.2026	11.29
x1 = 0.24	10.92
x1 = 0.2913	10.46
x1 = 0.3429	10.04
x1 = 0.3916	9.679
x1 = 0.4401	9.334
x1 = 0.4897	9.091
x1 = 0.5674	8.598
x1 = 0.6133	8.347
x1 = 0.6641	8.188
x1 = 0.7172	7.889
x1 = 0.7708	7.642
x1 = 0.8177	7.419
x1 = 0.8659	7.145
x1 = 0.9053	6.89
x1 = 0.9402	6.677
x1 = 0.9788	6.466
x2 = 0.009	6.323

Nc1ccccc1 + O=[N+]([O-])c1ccccc1
298.15 K, 101 kPa
Conditions	viscosity [mPa·s]
x2 = 0.1216	3.163
x2 = 0.2269	2.741
x2 = 0.4	2.328
x2 = 0.5602	2.082
x2 = 0.6878	1.949
x2 = 0.8353	1.889
x2 = 0.9171	1.836

CC(C)(C)O + OCC(O)CO
viscosity [mPa·s], 101.33 kPa
Conditions	x2 = 0.1029	x2 = 0.1996	x2 = 0.3009	x2 = 0.4015	x2 = 0.5001	x2 = 0.5995	x2 = 0.6993	x2 = 0.7992	x2 = 0.8995
308.15 K	5.962	10.24	19.34	36.09	65.66	105.9	154.9	211.7	276
318.15 K	4.1	6.761	12.32	21.85	37.6	58.03	83.42	108.5	132.4

NCCN + OCCO
viscosity [mPa·s], 101 kPa
Conditions	x1 = 0.0872	x1 = 0.17	x1 = 0.2572	x1 = 0.3496	x1 = 0.3568	x1 = 0.4448	x1 = 0.547	x1 = 0.6556	x1 = 0.7623	x1 = 0.8792
293.15 K	27.84	34.57	40.29	40.83	–	34.13	21.71	11.54	5.764	2.87
298.15 K	22.44	27.12	31.13	31.21	–	26.03	16.95	9.305	4.829	2.474
303.15 K	18.11	21.75	24.48	24.17	22.85	20.15	–	7.547	4.093	2.165
308.15 K	14.79	17.62	19.51	19.04	–	15.91	10.76	–	3.514	1.914
313.15 K	12.24	14.39	15.71	15.26	–	12.72	8.758	5.248	3.031	1.715
318.15 K	10.22	11.87	12.84	12.3	–	10.35	7.228	4.445	2.644	1.537
323.15 K	8.597	9.828	10.57	10.09	–	8.503	6.053	3.8	2.317	1.383

CCCC[n+]1ccn(C)c1.[Cl][Al-]([Cl])([Cl])[Cl] + [Al+3].[Cl-].[Cl-].[Cl-]
viscosity [mPa·s], 101 kPa
Conditions	293.15 K	298.15 K	303.15 K	308.15 K	313.15 K	318.15 K	323.15 K
x2 = 0.46	30.8	27	24.1	21	18.4	16.4	14.8
x2 = 0.57	31.4	27.3	23.7	20.8	18.3	16.4	14.7

CC(C)(C)O + c1ccccc1
Conditions	viscosity [mPa·s]
298.15 K, 101 kPa, x1 = 0.0105	0.5986
298.15 K, 101 kPa, x1 = 0.02032	0.5966
298.15 K, 101 kPa, x1 = 0.02705	0.5958
298.15 K, 101 kPa, x1 = 0.03393	0.5954
298.15 K, 101 kPa, x1 = 0.04376	0.5954
298.15 K, 101 kPa, x1 = 0.05002	0.5954
298.15 K, 101 kPa, x1 = 0.06281	0.5966
298.15 K, 101 kPa, x1 = 0.07569	0.598
298.15 K, 101 kPa, x1 = 0.08395	0.5995
298.15 K, 101 kPa, x1 = 0.1597	0.6201
298.15 K, 101 kPa, x1 = 0.2472	0.6577
298.15 K, 101 kPa, x1 = 0.5139	0.886
298.15 K, 101 kPa, x1 = 0.9027	2.579
303 K, 101.3 kPa, x2 = 0.1001	2.487
303 K, 101.3 kPa, x2 = 0.2137	1.787
303 K, 101.3 kPa, x2 = 0.3033	1.395
303 K, 101.3 kPa, x2 = 0.4117	1.08
303 K, 101.3 kPa, x2 = 0.5129	0.8736
303 K, 101.3 kPa, x2 = 0.6126	0.7351
303 K, 101.3 kPa, x2 = 0.7187	0.6441
303 K, 101.3 kPa, x2 = 0.8046	0.6103
303 K, 101.3 kPa, x2 = 0.8998	0.5822
303.2 K, 101.33 kPa, x2 = 0.05	2.528
303.2 K, 101.33 kPa, x2 = 0.1	1.968
303.2 K, 101.33 kPa, x2 = 0.15	1.598
303.2 K, 101.33 kPa, x2 = 0.2	1.356
303.2 K, 101.33 kPa, x2 = 0.3	1.06
303.2 K, 101.33 kPa, x2 = 0.4	0.87
303.2 K, 101.33 kPa, x2 = 0.5	0.753
303.2 K, 101.33 kPa, x2 = 0.6	0.671
303.2 K, 101.33 kPa, x2 = 0.7	0.609
303.2 K, 101.33 kPa, x2 = 0.8	0.57
303.2 K, 101.33 kPa, x2 = 0.85	0.559
303.2 K, 101.33 kPa, x2 = 0.9	0.553
303.2 K, 101.33 kPa, x2 = 0.95	0.552

CCNCC + c1ccccc1
viscosity, 101.33 kPa
Conditions	x1 = 0.2	x1 = 0.4	x1 = 0.5	x1 = 0.6	x1 = 0.8
293.15 K	0.522 mPa·s and 0.522 mPa·s	0.44 mPa·s	0.411 mPa·s and 0.411 mPa·s	0.387 mPa·s	0.349 mPa·s
303.15 K	0.463 mPa·s	0.393 mPa·s	0.367 mPa·s	0.348 mPa·s	0.314 mPa·s
308.15 K	0.438 mPa·s and 0.438 mPa·s	0.374 mPa·s	0.35 mPa·s and 0.35 mPa·s	0.333 mPa·s	0.298 mPa·s
